Reference: patent US8017652B2, “Activators of peroxisome proliferator-activated receptors” (Kowa Company Ltd., priority 2000, dated 2011)

Assays:
[1] = system: hepatoma; settings: clinical, cited from earlier work
[2] = system: PPAR γ2 mRNA; test: Expression of PPAR γ2 mRNA in human cell line (RT-PCR); type: cell-based; settings: Caco-2 cells, serum-free medium, 10 μM, 0-5 hours after addition
Protocol: (§1) Caco-2 cells (derived from colon cancer) as a human cell line were cultured at 37° C. in RPMI-1640 medium containing 10% fetal calf serum in the presence of 5% C02. The medium was then replaced with serum-free RPMI-1640 medium and the cells were cultured for 48 hours. In order to examine the effect of NIK-333, a solution of NIK-333 in ethanol was added at a final concentration of 10 μM. At 0, 0.5, 1, 2 and 5 hours after the addition, RNA was extracted to observe. mRNA for PPAR α, PPAR γ1 and PPAR γ2 by the RT-PCR method.

[3] = system: PPAR α mRNA; test: Expression of PPAR α mRNA in human cell line (RT-PCR); type: cell-based; settings: Caco-2 cells, serum-free medium, 10 μM, 0-5 hours after addition, FIG. 1
Protocol: as §1

[4] = system: PPAR γ1 mRNA; test: Expression of PPAR γ1 mRNA in human cell line (RT-PCR); type: cell-based; settings: Caco-2 cells, serum-free medium, 10 μM, 0-5 hours after addition, FIG. 2
Protocol: as §1

[5] = molecular target: T1, PPAR α (Homo sapiens, UniProt Q07869); test: Ligand activity for PPAR α (PPRE luciferase reporter in COS-7 cells); type: cell-based; settings: 10 μM, 24 hours, FIG. 3; for luciferase activity, PPAR α expression vector not introduced (−) / luciferase activity, PPAR α expression vector introduced (+): firefly luciferase standardized by renilla luciferase; for luciferase activity, PPAR α expression vector introduced (+): RXR α + PPAR α + PPRE reporter
T1 construct: expressed in transfected cells; host or cells: COS-7 (monkey kidney)
T1 sequence (Q07869 1-468): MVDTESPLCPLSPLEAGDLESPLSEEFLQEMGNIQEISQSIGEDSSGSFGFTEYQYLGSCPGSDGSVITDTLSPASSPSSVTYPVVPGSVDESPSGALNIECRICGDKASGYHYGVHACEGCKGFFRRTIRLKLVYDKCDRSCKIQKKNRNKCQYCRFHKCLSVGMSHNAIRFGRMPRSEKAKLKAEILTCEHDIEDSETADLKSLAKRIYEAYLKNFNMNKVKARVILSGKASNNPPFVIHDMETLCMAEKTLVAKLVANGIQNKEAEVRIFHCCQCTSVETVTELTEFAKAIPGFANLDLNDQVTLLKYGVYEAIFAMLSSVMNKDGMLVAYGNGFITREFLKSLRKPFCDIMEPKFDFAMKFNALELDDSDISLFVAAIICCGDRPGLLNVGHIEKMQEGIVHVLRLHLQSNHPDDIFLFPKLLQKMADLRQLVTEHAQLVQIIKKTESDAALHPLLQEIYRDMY
T1 sequence (P19793 1-462 partner): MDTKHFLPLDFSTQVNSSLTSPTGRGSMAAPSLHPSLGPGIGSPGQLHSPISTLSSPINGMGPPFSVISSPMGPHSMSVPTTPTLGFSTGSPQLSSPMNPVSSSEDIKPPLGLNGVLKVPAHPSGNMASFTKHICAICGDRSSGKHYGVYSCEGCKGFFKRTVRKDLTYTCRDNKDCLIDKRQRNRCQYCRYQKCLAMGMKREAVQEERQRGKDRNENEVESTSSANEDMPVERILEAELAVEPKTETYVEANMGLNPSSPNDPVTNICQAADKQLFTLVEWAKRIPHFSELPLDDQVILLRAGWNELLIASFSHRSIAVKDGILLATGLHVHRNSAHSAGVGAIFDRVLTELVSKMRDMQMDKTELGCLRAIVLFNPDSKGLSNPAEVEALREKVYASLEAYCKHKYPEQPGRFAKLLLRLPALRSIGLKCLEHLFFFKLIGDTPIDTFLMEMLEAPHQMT
Protocol: COS-7 cells, a cell line derived from monkey kidney, were cultured at 37° C. in DMEM medium containing 10% fetal calf serum in the presence of 5% CO2. Then, expression vectors of RXR α (retinoic acid X receptor α) and PPAR α, and a reporter vector incorporated with PPRE (peroxisome proliferator-responsive element) as a PPAR-responsive element were cotransfected into the cells, and the cells were cultured for 24 hours. In order to examine the effect of NIK-333, a solution of NIK-333 or Wy-14643(selective agonist of PPAR α) in ethanol was added at a final concentration of 10 μM. After cultivation for 24 hours, the activity of firefly luciferase was measured. The measured values were represented as values standardized by using the renilla luciferase activity.

CC(C)=CCC/C(C)=C/CC/C(C)=C/C=C/C(C)=C/C(=O)O [NIK-333, (2E,4E,6E,10E)-3,7,11,15-Tetramethyl-2,4,6,10,14-hexadecapentaenoic acid]
recurrence of hepatoma after radical treatment ([1]; long-term administration for one-year): significantly inhibited recurrence of hepatoma | liver function failure or other adverse effect during the administration ([1]; long-term administration): almost no liver function failure or almost no other adverse effect | expression of PPAR γ2 mRNA [2]: not observed | expression of PPAR α mRNA [3]: observed from 0.5 hour after the addition | expression of PPAR γ1 mRNA [4]: also observed from 0.5 hour after the addition | increasing action of ligand activity compared with Wy-14643 [5]: almost equivalent to the action of Wy-14643 | luciferase activity, PPAR α expression vector not introduced (−) [5]: failed to increase the luciferase activity | luciferase activity, PPAR α expression vector introduced (+) [5]: increased the luciferase activity

Cc1cccc(Nc2cc(Cl)nc(SCC(=O)O)n2)c1C [Wy-14643, reference compound]
luciferase activity, PPAR α expression vector not introduced (−) [5]: failed to increase the luciferase activity | luciferase activity, PPAR α expression vector introduced (+) [5]: increased the luciferase activity
